pIC50: −log10 of the molar value.

This assay addresses T1, G1 APOL1 (Homo sapiens, UniProt O14791, I384M/S342G).
T1 construct: expressed in transfected cells
T1 sequence (O14791 28-398 S342G/I384M): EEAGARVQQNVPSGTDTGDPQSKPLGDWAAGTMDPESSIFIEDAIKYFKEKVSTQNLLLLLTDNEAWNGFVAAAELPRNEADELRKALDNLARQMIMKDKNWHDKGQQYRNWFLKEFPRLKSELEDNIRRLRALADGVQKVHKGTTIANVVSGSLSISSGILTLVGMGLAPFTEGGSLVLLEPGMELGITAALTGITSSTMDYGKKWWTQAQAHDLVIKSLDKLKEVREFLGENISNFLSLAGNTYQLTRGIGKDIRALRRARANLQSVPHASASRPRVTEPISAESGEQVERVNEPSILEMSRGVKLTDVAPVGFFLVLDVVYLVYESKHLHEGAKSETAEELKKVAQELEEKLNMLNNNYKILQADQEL
Briefly: Acute APOL1 Thallium Assay with inducible stable clones of HEK 293 cells. The format is cell-based. The note with it: HEK 293 T-Rex cells expressing G1 APOL1; read-out: Thallium Assay (IC50). The method in brief:
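Readout: Tl+-triggered fluorescence, FLIPR, reflecting potassium flux through APOL1 pores after cells take up an AM-ester thallium indicator. Cells: HEK T-Rex stable clone G1 DC3.25, APOL1 G1 induced by tetracycline, seeded 26000 per well.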
For the compound `Cc1ccn(CCNC(=O)[C@H]2C[C@H](c3c(-c4ccc(F)cc4)[nH]c4c(F)cc(F)cc43)C2)n1` [Compound 35], the pIC50 (commonly −log10 of the IC50, conventionally taken in molar units) was less than 6.00.
With `O=C(NCCn1cncn1)[C@H]1C[C@H](c2c(-c3ccc(F)cc3)[nH]c3c(F)cc(F)cc32)C1` [Compound 36] the figure was greater than 6.60.
For the compound `Cc1cc(CNC(=O)[C@H]2C[C@H](c3c(-c4ccc(F)cc4)[nH]c4c(F)cc(F)cc43)C2)on1` [Compound 37], the pIC50 was less than 6.00.
Then `Cn1cc(CNC(=O)[C@H]2C[C@H](c3c(-c4ccc(F)cc4)[nH]c4c(F)cc(F)cc43)C2)cn1` [Compound 38], with less than 6.00; and `O=C(NCCn1cnnc1)[C@H]1C[C@H](c2c(-c3ccc(F)cc3)[nH]c3c(F)cc(F)cc32)C1` [Compound 39], with less than 6.00.
Then `CS(=O)(=O)CCNC(=O)[C@H]1C[C@H](c2c(-c3ccc(F)cc3)[nH]c3c(F)cc(F)cc32)C1` [Compound 40], with 6.00 to 6.60.
Then `O=C(NCc1nnco1)[C@H]1C[C@H](c2c(-c3ccc(F)cc3)[nH]c3c(F)cc(F)cc32)C1` [Compound 171], with 6.00 to 6.60.
With `Cc1nnc(CNC(=O)[C@H]2C[C@H](c3c(-c4ccc(F)cc4)[nH]c4c(F)cc(F)cc43)C2)o1` [Compound 172], the pIC50 is 6.00 to 6.60.
Regarding `Cc1noc(CNC(=O)[C@H]2C[C@H](c3c(-c4ccc(F)cc4)[nH]c4c(F)cc(F)cc43)C2)n1` [Compound 173], the pIC50 is greater than 6.60.
Then `Cn1cncc1CNC(=O)[C@H]1C[C@H](c2c(-c3ccc(F)cc3)[nH]c3c(F)cc(F)cc32)C1` [Compound 174], with less than 6.00.
Then `C[C@@H](O)CNC(=O)[C@H]1C[C@H](c2c(-c3ccc(F)cc3)[nH]c3c(F)cc(F)cc32)C1` [Compound 175], with 6.00 to 6.60.
Then `O=C(NC[C@H](O)C(F)(F)F)[C@H]1C[C@H](c2c(-c3ccc(F)cc3)[nH]c3c(F)cc(F)cc32)C1` [Compound 176], with 6.00 to 6.60.
For `O=C(NC[C@@H](O)C(F)(F)F)[C@H]1C[C@H](c2c(-c3ccc(F)cc3)[nH]c3c(F)cc(F)cc32)C1` [Compound 177], the pIC50 is 6.00 to 6.60.
Consider `O=C(N[C@H]1CC[C@@H]1O)[C@H]1C[C@H](c2c(-c3ccc(F)cc3)[nH]c3c(F)cc(F)cc32)C1` [Compound 178], for which the pIC50 was less than 6.00.
For `O=C(N[C@@H]1CCC[C@@H]1O)[C@H]1C[C@H](c2c(-c3ccc(F)cc3)[nH]c3c(F)cc(F)cc32)C1` [Compound 179], the negative logarithm of the IC50 (pIC50) is less than 6.00.
For `O=C(N[C@H]1CC[C@H]1O)[C@H]1C[C@H](c2c(-c3ccc(F)cc3)[nH]c3c(F)cc(F)cc32)C1` [Compound 181], the pIC50 was 6.00 to 6.60.
`O=C(N[C@@H]1CCC[C@H]1O)[C@H]1C[C@H](c2c(-c3ccc(F)cc3)[nH]c3c(F)cc(F)cc32)C1` [Compound 182]: the pIC50 was less than 6.00.
Turning to `O=C(NCC1(O)CC1)[C@H]1C[C@H](c2c(-c3ccc(F)cc3)[nH]c3c(F)cc(F)cc32)C1` [Compound 183], the pIC50 was 6.00 to 6.60.
With `O=C(N[C@H]1COC[C@@H]1O)[C@H]1C[C@H](c2c(-c3ccc(F)cc3)[nH]c3c(F)cc(F)cc32)C1` [Compound 184] the figure was 6.00 to 6.60; with `O=C(NCC1(O)COC1)[C@H]1C[C@H](c2c(-c3ccc(F)cc3)[nH]c3c(F)cc(F)cc32)C1` [Compound 185], 6.00 to 6.60; with `CC(CO)(CO)NC(=O)[C@H]1C[C@H](c2c(-c3ccc(F)cc3)[nH]c3c(F)cc(F)cc32)C1` [Compound 186], greater than 6.60.
With `O=C1OCC[C@@H]1NC(=O)[C@H]1C[C@H](c2c(-c3ccc(F)cc3)[nH]c3c(F)cc(F)cc32)C1` [Compound 188] the figure was 6.00 to 6.60; with `O=C(NC[C@H]1CC[C@@H](CO)O1)[C@H]1C[C@H](c2c(-c3ccc(F)cc3)[nH]c3c(F)cc(F)cc32)C1` [Compound 189], less than 6.00.
Then `CC(C#N)(CO)NC(=O)[C@H]1C[C@H](c2c(-c3ccc(F)cc3)[nH]c3c(F)cc(F)cc32)C1` (some centres unmarked) [Compound 191], with 6.00 to 6.60; and `O=C([C@H]1C[C@H](c2c(-c3ccc(F)cc3)[nH]c3c(F)cc(F)cc32)C1)N1CCC[C@@H]1CO` [Compound 192], with less than 6.00; and `O=C(NC1(CO)CCOC1)[C@H]1C[C@H](c2c(-c3ccc(F)cc3)[nH]c3c(F)cc(F)cc32)C1` (some centres unmarked) [Compound 194], with greater than 6.60.
On to `O=C([C@H]1C[C@H](c2c(-c3ccc(F)cc3)[nH]c3c(F)cc(F)cc32)C1)N1CC[C@@H]1CO` [Compound 195], for which the pIC50 is greater than 6.60.
Then `C#CC(CO)NC(=O)[C@H]1C[C@H](c2c(-c3ccc(F)cc3)[nH]c3c(F)cc(F)cc32)C1` (some centres unmarked) [Compound 196], with 6.00 to 6.60; and `Cn1ncc(CNC(=O)[C@H]2C[C@H](c3c(-c4ccc(F)cc4)[nH]c4c(F)cc(F)cc43)C2)n1` [Compound 198], with 6.00 to 6.60; and `O=C(NC(CO)C1CC1)[C@H]1C[C@H](c2c(-c3ccc(F)cc3)[nH]c3c(F)cc(F)cc32)C1` (some centres unmarked) [Compound 199], with 6.00 to 6.60.
Then `C[C@@H](CO)NC(=O)[C@H]1C[C@H](c2c(-c3ccc(F)cc3)[nH]c3c(F)cc(F)cc32)C1` [Compound 200], with greater than 6.60; and `N#CC(CO)NC(=O)[C@H]1C[C@H](c2c(-c3ccc(F)cc3)[nH]c3c(F)cc(F)cc32)C1` (some centres unmarked) [Compound 201], with greater than 6.60; and `O=C(NC1(CO)CC(F)(F)C1)[C@H]1C[C@H](c2c(-c3ccc(F)cc3)[nH]c3c(F)cc(F)cc32)C1` [Compound 202], with 6.00 to 6.60.
For `CC[C@H](CO)NC(=O)[C@H]1C[C@H](c2c(-c3ccc(F)cc3)[nH]c3c(F)cc(F)cc32)C1` [Compound 203], the pIC50 was 6.00 to 6.60.
With `CC[C@@H](CO)NC(=O)[C@H]1C[C@H](c2c(-c3ccc(F)cc3)[nH]c3c(F)cc(F)cc32)C1` [Compound 204] the figure was 6.00 to 6.60.
Then `CN(C(=O)[C@H]1C[C@H](c2c(-c3ccc(F)cc3)[nH]c3c(F)cc(F)cc32)C1)C1COCC1O` (some centres unmarked) [Compound 205], with less than 6.00; and `O=C([C@H]1C[C@H](c2c(-c3ccc(F)cc3)[nH]c3c(F)cc(F)cc32)C1)N1CC[C@H]1CO` [Compound 206], with 6.00 to 6.60.
For `CC1CC(NC(=O)[C@H]2C[C@H](c3c(-c4ccc(F)cc4)[nH]c4c(F)cc(F)cc43)C2)C(=O)O1` (some centres unmarked) [Compound 207], the pIC50 was less than 6.00.
Regarding `O=C1NCCC1CNC(=O)[C@H]1C[C@H](c2c(-c3ccc(F)cc3)[nH]c3c(F)cc(F)cc32)C1` (some centres unmarked) [Compound 208], the pIC50 was less than 6.00.
In the case of `O=C1N[C@H](CO)C[C@@H]1NC(=O)[C@H]1C[C@H](c2c(-c3ccc(F)cc3)[nH]c3c(F)cc(F)cc32)C1` [Compound 209], the pIC50 was less than 6.00.
With `O=C([C@H]1C[C@H](c2c(-c3ccc(F)cc3)[nH]c3c(F)cc(F)cc32)C1)N1CCC[C@H]1CO` [Compound 210] the figure was less than 6.00; with `C[C@]1(NC(=O)[C@H]2C[C@H](c3c(-c4ccc(F)cc4)[nH]c4c(F)cc(F)cc43)C2)C[C@@H](O)C1` [Compound 211], 6.00 to 6.60.
With `O=C(N[C@H]1CNC[C@@H]1O)[C@H]1C[C@H](c2c(-c3ccc(F)cc3)[nH]c3c(F)cc(F)cc32)C1` [Compound 212] the figure was less than 6.00; with `CS(=O)(=O)NC(=O)[C@H]1C[C@H](c2c(-c3ccc(F)cc3)[nH]c3c(F)cc(F)cc32)C1` [Compound 213], less than 6.00.
With `CC(C)(O)C(O)CNC(=O)[C@H]1C[C@H](c2c(-c3ccc(F)cc3)[nH]c3c(F)cc(F)cc32)C1` (some centres unmarked) [Compound 215] the figure was less than 6.00; with `O=C([C@H]1C[C@H](c2c(-c3ccc(F)cc3)[nH]c3c(F)cc(F)cc32)C1)N1CCOC[C@H]1CO` [Compound 217], less than 6.00; with `O=C([C@H]1C[C@H](c2c(-c3ccc(F)cc3)[nH]c3c(F)cc(F)cc32)C1)N1CCOC[C@@H]1CO` [Compound 219], 6.00 to 6.60.
As for `COC[C@@H]1CCN1C(=O)[C@H]1C[C@H](c2c(-c3ccc(F)cc3)[nH]c3c(F)cc(F)cc32)C1` [Compound 220], the pIC50 is less than 6.00.
Then `NC(=O)[C@@H](CO)NC(=O)[C@H]1C[C@H](c2c(-c3ccc(F)cc3)[nH]c3c(F)cc(F)cc32)C1` [Compound 221], with greater than 6.60; and `COC[C@@H]1CCN1C(=O)[C@H]1C[C@H](c2c(-c3ccc(F)cc3)[nH]c3c(F)cc(F)cc32)C1` [Compound 222], with 6.00 to 6.60.
With `O=C([C@H]1C[C@H](c2c(-c3ccc(F)cc3)[nH]c3c(F)cc(F)cc32)C1)N1CC(CO)C1` [Compound 223] the figure was less than 6.00; with `O=C(NC[C@@H](O)CO)[C@H]1C[C@H](c2c(-c3ccc(F)cc3)[nH]c3c(F)cc(F)cc32)C1` [Compound 224], less than 6.00.
With `O=C(NC[C@H](O)CO)[C@H]1C[C@H](c2c(-c3ccc(F)cc3)[nH]c3c(F)cc(F)cc32)C1` [Compound 225] the figure was less than 6.00; with `O=C([C@H]1C[C@H](c2c(-c3ccc(F)cc3)[nH]c3c(F)cc(F)cc32)C1)N1C[C@@H](O)[C@H](O)C1` [Compound 227], less than 6.00.
On to `O=C1CN(C(=O)[C@H]2C[C@H](c3c(-c4ccc(F)cc4)[nH]c4c(F)cc(F)cc43)C2)CCN1` [Compound 228], for which the pIC50 is less than 6.00.
With `NC(=O)C1CC(c2c(-c3ccc(F)cc3)[nH]c3c(F)cc(F)cc23)C1` (centres unmarked) [Compound 278, 3-[5,7-difluoro-2-(4-fluorophenyl)-1H-indol-3-yl]cyclobutanecarboxamide] the figure was 6.00 to 6.60.

Values taken from patent publication US12116343B2, “Inhibitors of APOL1 and methods of using same” (Vertex Pharmaceuticals Incorporated, priority 2020, dated 2024).
